For data set [1], the species on record is Mus musculus. Kind of data set: Biodistribution of the injected compound in liver of female BALB/C mice for 2.5 hours. Particulars: in vivo. It counts as ADME, organism-based.
Data set [2] in a line: Octanol/water distribution coefficient at pH 7.5. The class given is physicochemical.
For data set [3], the target named is Glutamate [NMDA] receptor. Description: Compound has been evaluated for its binding affinity towards N-methyl-D-aspartate glutamate receptor by displacing the radioligand [3H]MK-801. It counts as protein-complex assay.
Data set [4] is filed under the species Mus musculus. Kind of data set: Biodistribution of the injected compound in lung of female BALB/C mice for 0.5 hours. The note with it: in vivo. It counts as ADME, organism-based.
Data set [5] can be described thus: Octanol/water distribution coefficient at pH 7.4. The class given is physicochemical.
The species named for data set [6] is Mus musculus. Description: Biodistribution of the injected compound in spleen of female BALB/C mice for 0.5 hours. It counts as ADME, organism-based. Particulars: in vivo.
The species entered for data set [7] is Mus musculus. Description: Biodistribution of the injected compound in blood of female BALB/C mice for 5 hours. It counts as ADME, organism-based. Particulars: in vivo.
The nature of data set [8]: Octanol/water distribution coefficient at pH 3. The class given is physicochemical.
The species entered for data set [9] is Mus musculus. Description: Biodistribution of the injected compound in kidneys of female BALB/C mice for 2.5 hours. It counts as ADME, organism-based, Kidney. Particulars: in vivo.
The target in data set [10] is Glutamate [NMDA] receptor. Description: Compound has been evaluated for its binding affinity towards N-methyl-D-aspartate glutamate receptor by displacing the radioligand [3H]CGP-39653. It counts as protein-complex assay.
The species entered for data set [11] is Mus musculus. Description: Biodistribution of the injected compound in muscle of female BALB/C mice for 5 hours. It counts as ADME, organism-based, Muscle tissue. Particulars: in vivo.
For data set [12], the species on record is Mus musculus. Kind of data set: Biodistribution of the injected compound in muscle of female BALB/C mice for 2.5 hours. It counts as ADME, organism-based, Muscle tissue. The note with it: in vivo.
The species entered for data set [13] is Mus musculus. Kind of data set: Biodistribution of the injected compound in bone of female BALB/C mice for 5 hours. The class given is ADME, organism-based, Bone element. Particulars: in vivo.
The species entered for data set [14] is Mus musculus. Kind of data set: Biodistribution of the injected compound in heart of female BALB/C mice for 5 hours. It counts as ADME, organism-based. Particulars: in vivo.
Data set [15] is filed under the species Mus musculus. Description: Biodistribution of the injected compound in spleen of female BALB/C mice for 5 hours. The note with it: in vivo. It counts as ADME, organism-based.
Data set [16] is filed under the species Mus musculus. Description: Biodistribution of the injected compound in kidneys of female BALB/C mice for 0.5 hours. Particulars: in vivo. The class given is ADME, organism-based, Kidney.
The species named for data set [17] is Mus musculus. Description: Biodistribution of the injected compound in brain of female BALB/C mice for 2.5 hours. The class given is ADME, organism-based. Particulars: in vivo.
The species entered for data set [18] is Mus musculus. Kind of data set: Biodistribution of the injected compound in liver of female BALB/C mice for 5 hours. The class given is ADME, organism-based. Particulars: in vivo.
The species named for data set [19] is Mus musculus. Kind of data set: Biodistribution of the injected compound in muscle of female BALB/C mice for 0.5 hours. Particulars: in vivo. The class given is ADME, organism-based, Muscle tissue.
For data set [20], the species on record is Mus musculus. Description: Biodistribution of the injected compound in stomach of female BALB/C mice for 5 hours. The class given is ADME, organism-based. Particulars: in vivo.
The species entered for data set [21] is Mus musculus. Description: Biodistribution of the injected compound in intestines of female BALB/C mice for 0.5 hours. Particulars: in vivo. The class given is ADME, organism-based, Intestine.
For data set [22], the species on record is Mus musculus. Description: Biodistribution of the injected compound in kidneys of female BALB/C mice for 5 hours. The class given is ADME, organism-based, Kidney. Particulars: in vivo.
Data set [23] is described as follows: Octanol/water distribution coefficient at pH 4. The class given is physicochemical.
The species entered for data set [24] is Mus musculus. Description: Biodistribution of the injected compound in heart of female BALB/C mice for 2.5 hours. It counts as ADME, organism-based. Particulars: in vivo.
The species entered for data set [25] is Mus musculus. Kind of data set: Biodistribution of the injected compound in lung of female BALB/C mice for 5 hours. The class given is ADME, organism-based. The note with it: in vivo.
The species named for data set [26] is Mus musculus. Kind of data set: Biodistribution of the injected compound in stomach of female BALB/C mice for 2.5 hours. Particulars: in vivo. It counts as ADME, organism-based.
For data set [27], the species on record is Mus musculus. Kind of data set: Biodistribution of the injected compound in blood of female BALB/C mice for 2.5 hours. It counts as ADME, organism-based. Particulars: in vivo.
For data set [28], the species on record is Mus musculus. Kind of data set: Biodistribution of the injected compound in stomach of female BALB/C mice for 0.5 hours. The class given is ADME, organism-based. The note with it: in vivo.
In data set [29] the target is Glutamate receptor ionotropic, NMDA 1 (Homo sapiens, UniProt Q05586). Kind of data set: Compound was evaluated for its binding affinity for the glycine binding site on N-methyl-D-aspartate glutamate receptor by using [3H]MDL-105519 binding assay.
Data set [30] is filed under the species Mus musculus. Kind of data set: Biodistribution of the injected compound in lung of female BALB/C mice for 2.5 hours. The note with it: in vivo. The class given is ADME, organism-based.
The species entered for data set [31] is Mus musculus. Kind of data set: Biodistribution of the injected compound in bone of female BALB/C mice for 2.5 hours. The class given is ADME, organism-based, Bone element. Particulars: in vivo.
Data set [32] can be described thus: Octanol/water distribution coefficient at pH 5.5. It counts as physicochemical.
Data set [33] is filed under the species Mus musculus. Description: Biodistribution of the injected compound in intestines of female BALB/C mice for 2.5 hours. The class given is ADME, organism-based, Intestine. The note with it: in vivo.
The species named for data set [34] is Mus musculus. Kind of data set: Biodistribution of the injected compound in brain of female BALB/C mice for 0.5 hours. The class given is ADME, organism-based. Particulars: in vivo.
A short description of data set [35]: Octanol/water distribution coefficient at pH 4.8. The class given is physicochemical.
The species entered for data set [36] is Mus musculus. Kind of data set: Biodistribution of the injected compound in blood of female BALB/C mice for 0.5 hours. The class given is ADME, organism-based. Particulars: in vivo.
The species entered for data set [37] is Mus musculus. Description: Biodistribution of the injected compound in liver of female BALB/C mice for 0.5 hours. It counts as ADME, organism-based. The note with it: in vivo.
The species entered for data set [38] is Mus musculus. Kind of data set: Biodistribution of the injected compound in bone of female BALB/C mice for 0.5 hours. The class given is ADME, organism-based, Bone element. Particulars: in vivo.
For data set [39], the species on record is Mus musculus. Description: Biodistribution of the injected compound in spleen of female BALB/C mice for 2.5 hours. It counts as ADME, organism-based. Particulars: in vivo.
Data set [40] can be described thus: Octanol/water distribution coefficient at pH 6.5. It counts as physicochemical.
The species entered for data set [41] is Mus musculus. Description: Biodistribution of the injected compound in heart of female BALB/C mice for 0.5 hours. The class given is ADME, organism-based. Particulars: in vivo.
Data set [42] is filed under the species Mus musculus. Kind of data set: Biodistribution of the injected compound in intestines of female BALB/C mice for 5 hours. The class given is ADME, organism-based, Intestine. The note with it: in vivo.
For data set [43], the species on record is Mus musculus. Description: Biodistribution of the injected compound in brain of female BALB/C mice for 5 hours. The class given is ADME, organism-based. The note with it: in vivo.
Data set [44] concerns the target Glutamate receptor ionotropic AMPA (Homo sapiens, UniProt P42261+P42262+P42263+P48058). Description: Compound has been evaluated for its binding affinity towards Ionotropic glutamate receptor AMPA by displacing the radioligand [3H]AMPA. The class given is protein-complex assay.
The target of data set [45] is Glutamate receptor ionotropic kainate (Homo sapiens) (UniProt P39086+Q16478+Q16099+Q13002+Q13003). Kind of data set: Inhibition of binding of [3H]kainate to kainate at 10 uM compound concentration. The class given is protein-complex assay.
Data set [46] deals with Mus musculus. Description: Effective dose of the intravenously administered compound, protecting the mice in the maximal electroshock test. The class given is functional. Particulars: iv. For orientation: The maximal electroshock test induces tonic seizures with an electrical stimulus.
The subject of data set [47] is Mus musculus. Description: Percent protection offered by the compound (10 mg/kg) in maximal electroshock test in mice, 60 min after intravenous administration. The class given is functional.
Data set [48] deals with Glutamate receptor ionotropic kainate. Kind of data set: Compound has been evaluated for its binding affinity towards kainate by displacing the radioligand [3H]kainate. It counts as protein-complex assay.

As usually defined, the logD is lipophilicity at a set pH, counting ionised and neutral species. Broadly, the IC50 is the midpoint of a concentration-inhibition curve. Higher therefore signals weaker potency in that assay. Consider `C[C@@H](NCc1cc(I)cc2[nH]c(=O)c(=O)[nH]c12)P(=O)(O)O`, for which the Injected dose/g tissue in the data set listed under Mus musculus [1] is listed as 0.49%; in the data set filed under Mus musculus [4], 0.96%; in the data set listed under Mus musculus [6] it was 0.46%; in the data set listed under Mus musculus [7], 0.49%; in the data set listed under Mus musculus [9], 3.29%; in the data set listed under Mus musculus [11], 0.19%. The Injected dose/g tissue in the data set listed under Mus musculus [12] was determined as 0.21%; in the data set listed under Mus musculus [13], 0.78%; in the data set filed under Mus musculus [14], 0.82%; in the data set listed under Mus musculus [15], 0.21%; in the data set listed under Mus musculus [16], 6.68%; in the data set filed under Mus musculus [17], 0.01%. In addition, the Injected dose/g tissue in the data set listed under Mus musculus [18] was found to be 0.43%; in the data set listed under Mus musculus [19] it was 0.4%; in the data set filed under Mus musculus [20] it was 0.22%; in the data set filed under Mus musculus [21], 0.44%; in the data set filed under Mus musculus [22], 2.98%; in the data set listed under Mus musculus [24], 0.93%. The Injected dose/g tissue in the data set listed under Mus musculus [25] was 0.38%; in the data set filed under Mus musculus [26], 0.23%; in the data set filed under Mus musculus [27], 0.54%; in the data set listed under Mus musculus [28], 0.58%; in the data set listed under Mus musculus [30] it was 0.4%; in the data set filed under Mus musculus [31], 0.92%. Also, the Injected dose/g tissue is listed as 0.22% in the data set filed under Mus musculus [33]; 0.03% in the data set listed under Mus musculus [34]; 1.1% in the data set listed under Mus musculus [36]; 0.92% in the data set listed under Mus musculus [37]; 1.46% in the data set filed under Mus musculus [38]; 0.23% in the data set filed under Mus musculus [39]. The Injected dose/g tissue in the data set listed under Mus musculus [41] was 1.34%; in the data set filed under Mus musculus [42] it was 0.2%; in the data set listed under Mus musculus [43], 0.01%. Further, the logD was -1.8 in data set [2]; -2.5 in data set [5]; -0.8 in [8]; -1.2 in data set [23]; -1.6 in data set [32]; -1.5 in data set [35]. Further, in data set [40], the logD is -1.7. In addition, the IC50 in data set [3] is more than 10000 nM; in data set [10], more than 10000 nM; in [29], 8 nM; in data set [44], 340 nM.

As to `C[C@@H](NCc1cc([N+](=O)[O-])cc2[nH]c(=O)c(=O)[nH]c12)[P+]([O-])(O)O`, the 50% inhibitory concentration (IC50) in data set [29] was 32 nM.

By inhibition is commonly meant the drop in the measured response relative to a control, in per cent. As a reminder, the ED50 is the midpoint of the dose-response relation. A high value points to weaker potency. `C[C@@H](NCc1cc(I)cc2nc(O)c(O)nc12)P(=O)(O)O` came in with an inhibition in data set [45] of 49%. This compound returned a 50% effective dose (ED50) in the data set with Mus musculus [46] of 10 mg/kg. The same compound showed a Protection in the data set with Mus musculus [47] of 20%.

As for `C[C@@H](NCc1cc(Br)cc2nc(O)c(O)nc12)P(=O)(O)O`, the 50% inhibitory concentration (IC50) in data set [3] is more than 10000 nM; in [10], more than 10000 nM; in data set [29], 5 nM; in data set [48], 2700 nM; in [44] it was 3000 nM. This compound also had an ED50 with Mus musculus [46] of 5 mg/kg. The compound further yielded a Protection in the data set on Mus musculus [47] of 60%.

As to `C[C@@H](NCc1cc(C(F)(F)F)cc2[nH]c(=O)c(=O)[nH]c12)P(=O)(O)O`, the IC50 in data set [29] turned out to be 8 nM.

Consider `C[C@@H](NCc1cc(Cl)cc2nc(O)c(O)nc12)P(=O)(O)O`, for which the IC50 in [29] was 6 nM.

With `C[C@@H](NCc1cc(F)cc2[nH]c(=O)c(=O)[nH]c12)P(=O)(O)O`, in data set [29], the IC50 came out at 9 nM.

On to `C[C@@H](NCc1cc(C#N)cc2[nH]c(=O)c(=O)[nH]c12)P(=O)(O)O`, for which the IC50 in data set [29] was 76 nM.

Values taken from ChEMBL document CHEMBL1132861, “Synthesis, radiolabelling and biological characterization of (D)-7-iodo-N-(1-phosphonoethyl)-5-aminomethylquinoxaline-2,3-dione, a glycine-binding site antagonist of NMDA receptors” (Bioorg Med Chem Lett, 2000).
